From ChEMBL document CHEMBL6083213, “Discovery of benzimidazole-2-amide BNZ-111 as new tubulin inhibitor” (Bioorg Med Chem Lett, 2024)
≈ marks a conversion by molar mass, not a printed value. Blank lines part the entries; values can stand above or below the compound they belong to. Calls of active or inactive are those of the source. The calls are words filed in the database; no cut-off is given here.

Tests used:
A549 [1] = test: Anticancer activity against human A549 cells assessed as inhibition of cell growth at 1 uM incubated for 72 hrs by MTT assay relative to control; assay type: functional
NCI-H1299 [2] = test: Anticancer activity against human NCI-H1299 cells assessed as inhibition of cell growth at 1 uM incubated for 72 hrs by MTT assay relative to control; assay type: functional
NCI-H460 [3] = test: Anticancer activity against human NCI-H460 cells assessed as inhibition of cell growth at 1 uM incubated for 72 hrs by MTT assay relative to control; assay type: functional
[4] = Half life in Sprague-Dawley rat at 2 mg/kg, iv; assay type: ADME, organism-based; conditions: in vivo
[5] = Oral bioavailability in Sprague-Dawley rat at 10 mg/kg; assay type: ADME, organism-based; conditions: in vivo
[6] = Clearance in Sprague-Dawley rat at 2 mg/kg, iv; assay type: ADME, organism-based; conditions: in vivo
[7] = Cmax in Sprague-Dawley rat at 10 mg/kg, po; assay type: ADME, organism-based; conditions: in vivo
[8] = Volume of distribution at steady state in Sprague-Dawley rat at 2 mg/kg, iv; assay type: ADME, organism-based; conditions: in vivo, read-out: Vdss
[9] = AUC in Sprague-Dawley rat at 10 mg/kg, po; assay type: ADME, organism-based; conditions: in vivo
NCI-H460 [10] = test: Anticancer activity against human NCI-H460 cells incubated for 24; assay type: functional, cell-based
[11] = Cytotoxicity against human HeyA8-MDR cells incubated for 24 hrs; assay type: toxicity, cell-based
[12] = Microsomal stability in rat liver microsomes assessed as parent compound remaining measured after 30 mins; assay type: ADME, Microsome; conditions: read-out: Stability
Vero = test: Cytotoxicity against african green monkey Vero cells incubated for 24 hrs; assay type: toxicity, cell-based; conditions: chlorocebus sabaeus
HEY A8 = test: Anticancer activity against human HEY A8 cells incubated for 24; assay type: functional, cell-based
A2780 = test: Anticancer activity against human A2780 cells incubated for 24; assay type: functional, cell-based
HeyA8-MDR = test: Antitumor activity against human HeyA8-MDR cells xenografted in mouse assessed as tumor growth inhibition; assay type: functional, cell-based
[13] = Cytotoxicity against human A2780/CP20 cells incubated for 24 hrs; assay type: toxicity, cell-based; conditions: a2780/cp20, 24 h
[14] = Plasma protein binding in human; assay type: ADME, cell-free; conditions: read-out: PPB (converted)
[15] = Cytotoxicity against human SKOV3/TR cells incubated for 24 hrs; assay type: toxicity, cell-based
NIH3T3 = test: Cytotoxicity against mouse NIH3T3 cells incubated for 24 hrs; assay type: toxicity, cell-based; conditions: nih3t3, 24 h
[16] = Stability in human plasma assessed as parent compound remaining after 4 hrs; assay type: ADME, cell-free; conditions: read-out: Stability
[17] = Plasma protein binding in mouse; assay type: ADME, cell-free; conditions: read-out: PPB (converted)
A549 [18] = test: Anticancer activity against human A549 cells incubated for 24; assay type: functional, cell-based
hERG (KCNH2) = hERG (KCNH2) (Homo sapiens, UniProt Q12809); test: Inhibition of hERG at 10 uM relative to control; assay type: toxicity
Sequence of hERG (KCNH2) (Q12809 whole entry): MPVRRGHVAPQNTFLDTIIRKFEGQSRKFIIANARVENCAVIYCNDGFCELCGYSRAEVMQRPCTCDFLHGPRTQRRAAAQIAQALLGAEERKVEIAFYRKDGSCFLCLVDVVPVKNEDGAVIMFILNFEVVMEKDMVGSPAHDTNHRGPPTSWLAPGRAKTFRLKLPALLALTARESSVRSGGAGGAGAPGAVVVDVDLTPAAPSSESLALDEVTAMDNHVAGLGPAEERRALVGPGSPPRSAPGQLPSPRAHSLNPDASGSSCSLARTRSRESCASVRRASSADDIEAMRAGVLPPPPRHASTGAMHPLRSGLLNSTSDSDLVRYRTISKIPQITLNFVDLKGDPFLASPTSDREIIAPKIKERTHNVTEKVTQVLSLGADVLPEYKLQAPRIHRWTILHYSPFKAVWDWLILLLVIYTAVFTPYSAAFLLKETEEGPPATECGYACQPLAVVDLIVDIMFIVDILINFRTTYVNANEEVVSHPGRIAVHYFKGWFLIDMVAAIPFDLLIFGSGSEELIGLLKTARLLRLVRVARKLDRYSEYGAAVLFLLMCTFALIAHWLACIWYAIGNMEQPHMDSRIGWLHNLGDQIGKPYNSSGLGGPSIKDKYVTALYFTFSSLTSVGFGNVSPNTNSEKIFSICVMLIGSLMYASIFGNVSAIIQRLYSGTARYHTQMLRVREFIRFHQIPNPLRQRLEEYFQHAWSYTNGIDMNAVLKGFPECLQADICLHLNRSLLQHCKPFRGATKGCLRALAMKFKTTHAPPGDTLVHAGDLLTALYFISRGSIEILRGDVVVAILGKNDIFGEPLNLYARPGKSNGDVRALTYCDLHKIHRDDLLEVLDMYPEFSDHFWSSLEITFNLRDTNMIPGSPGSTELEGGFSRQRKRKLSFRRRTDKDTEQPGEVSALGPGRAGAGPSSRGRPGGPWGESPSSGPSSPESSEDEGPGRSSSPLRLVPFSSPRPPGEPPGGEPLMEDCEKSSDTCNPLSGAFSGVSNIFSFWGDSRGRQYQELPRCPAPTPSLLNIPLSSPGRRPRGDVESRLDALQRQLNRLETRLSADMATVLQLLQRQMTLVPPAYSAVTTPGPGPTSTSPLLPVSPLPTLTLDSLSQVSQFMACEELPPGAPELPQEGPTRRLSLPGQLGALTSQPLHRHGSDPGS

[19] = Stability in rat plasma assessed as parent compound remaining after 4 hrs; assay type: ADME, cell-free; conditions: read-out: Stability
HFL1 = test: Cytotoxicity against human HFL1 cells incubated for 24 hrs; assay type: toxicity, cell-based; conditions: hfl1, 24 h
[20] = Microsomal stability in mouse liver microsomes assessed as parent compound remaining measured after 30 mins; assay type: ADME, Microsome; conditions: read-out: Stability
CHO-K1 = test: Cytotoxicity against CHO-K1 cells incubated for 24 hrs; assay type: toxicity, cell-based, Cricetulus griseus; conditions: chinese hamster, cho-k1, 24 h
[21] = Microsomal stability in human liver microsomes assessed as parent compound remaining measured after 30 mins; assay type: ADME, Microsome; conditions: read-out: Stability
[22] = Stability in mouse plasma assessed as parent compound remaining after 4 hrs; assay type: ADME, cell-free; conditions: read-out: Stability
L929 = test: Cytotoxicity against mouse L929 cells incubated for 24 hrs; assay type: toxicity, cell-based; conditions: l929, 24 h
[23] = Cytotoxicity against human SKOV3.ip1 cells incubated for 24 hrs; assay type: toxicity, cell-based; conditions: skov3.ip1, 24 h
NCI-H1299 [24] = test: Anticancer activity against human NCI-H1299 cells incubated for 24; assay type: functional, cell-based
[25] = Solubility of compound in 1 % DMSO-PBS buffer; assay type: physicochemical

Structure (SMILES): CCCOc1ccc2nc(NC(=O)OC)n(C)c2c1
inhibition at 1 µM (A549 [1]): 10%
inhibition at 1 µM (NCI-H1299 [2]): 19%
inhibition at 1 µM (NCI-H460 [3]): 10%

Structure (SMILES): CCCOc1cc2[nH]c(NC(=O)CC)nc2cc1Cl
inhibition at 1 µM (A549 [1]): 58%
inhibition at 1 µM (NCI-H1299 [2]): 55%
inhibition at 1 µM (NCI-H460 [3]): 60%

Structure (SMILES): CCOc1ccc2nc(NC(=O)OC)[nH]c2c1
inhibition at 1 µM (A549 [1]): 25%
inhibition at 1 µM (NCI-H1299 [2]): 23%
inhibition at 1 µM (NCI-H460 [3]): 27%

Structure (SMILES): CCCCc1ccc2[nH]c(NC(=O)OC)nc2c1 [PARBENDAZOLE]
inhibition at 1 µM (A549 [1]): 47%
inhibition at 1 µM (NCI-H1299 [2]): 37%
inhibition at 1 µM (NCI-H460 [3]): 27%

Structure (SMILES): CC(=O)O[C@H]1C(=O)[C@@]2(C)[C@H]([C@H](OC(=O)c3ccccc3)[C@]3(O)C[C@H](OC(=O)[C@H](O)[C@@H](NC(=O)c4ccccc4)c4ccccc4)C(C)=C1C3(C)C)[C@]1(OC(C)=O)CO[C@@H]1C[C@@H]2O [PACLITAXEL]
inhibition at 1 µM (A549 [1]): 74%
inhibition at 1 µM (NCI-H1299 [2]): 73%
inhibition at 1 µM (NCI-H460 [3]): 63%

half-life [4]: 0.25 h
bioavailability [5]: 44%
clearance [6]: 132 mL/min/kg
Cmax [7]: 580 ng/mL
Vd [8]: 2.8 L/kg
AUC [9]: 590 ng·h/mL
Structure (SMILES): CCCOc1ccc2nc(NC(=O)NC)[nH]c2c1
inhibition at 1 µM (A549 [1]): 59%
inhibition at 1 µM (NCI-H1299 [2]): 65%
inhibition at 1 µM (NCI-H460 [3]): 54%

Structure (SMILES): COC(=O)Nc1nc2cc(C(=O)c3ccccc3)ccc2[nH]1 [MEBENDAZOLE]
inhibition at 1 µM (A549 [1]): 48%
inhibition at 1 µM (NCI-H1299 [2]): 52%
inhibition at 1 µM (NCI-H460 [3]): 46%

Structure (SMILES): CCCOc1ccc2nc(N)[nH]c2c1
inhibition at 1 µM (A549 [1]): 8%
inhibition at 1 µM (NCI-H1299 [2]): 24%
inhibition at 1 µM (NCI-H460 [3]): 13%

Structure (SMILES): CCCOc1cc2[nH]c(NC(=O)CC)nc2cc1C
inhibition at 1 µM (A549 [1]): 34%
inhibition at 1 µM (NCI-H1299 [2]): 26%
inhibition at 1 µM (NCI-H460 [3]): 40%

Structure (SMILES): CCCOc1ccc2nc(NS(=O)(=O)CC)[nH]c2c1
inhibition at 1 µM (A549 [1]): 4%
inhibition at 1 µM (NCI-H1299 [2]): 9%
inhibition at 1 µM (NCI-H460 [3]): 6%

half-life [4]: 27 h
bioavailability [5]: 2.6%
clearance [6]: 350 mL/min/kg
Cmax [7]: 10 ng/mL
Vd [8]: 413 L/kg
AUC [9]: 10 ng·h/mL
Structure (SMILES): CCCOc1ccc2nc(NC(=O)OC)[nH]c2c1 [OXIBENDAZOLE]
inhibition at 1 µM (A549 [1]): 58%
inhibition at 1 µM (NCI-H1299 [2]): 65%
inhibition at 1 µM (NCI-H460 [3]): 47%

Structure (SMILES): CCCOc1ccc2c(c1)nc(NC(=O)OC)n2C
inhibition at 1 µM (A549 [1]): 23%
inhibition at 1 µM (NCI-H1299 [2]): 31%
inhibition at 1 µM (NCI-H460 [3]): 10%

Structure (SMILES): COC(=O)Nc1nc2cc(Sc3ccccc3)ccc2[nH]1 [FENBENDAZOLE]
inhibition at 1 µM (A549 [1]): 44%
inhibition at 1 µM (NCI-H1299 [2]): 59%
inhibition at 1 µM (NCI-H460 [3]): 43%

half-life [4]: 18.6 h
bioavailability [5]: 25%
clearance [6]: 45.5 mL/min/kg
Cmax [7]: 1560 ng/mL
Vd [8]: 6.4 L/kg
AUC [9]: 930 ng·h/mL
Structure (SMILES): CCCOc1ccc2nc(NC(=O)CC)[nH]c2c1
inhibition at 1 µM (A549 [1]): 58%
inhibition at 1 µM (NCI-H1299 [2]): 64%
inhibition at 1 µM (NCI-H460 [3]): 46%

Structure (SMILES): COC(=O)Nc1nc2ccc(OCCC(F)(F)F)cc2[nH]1
inhibition at 1 µM (A549 [1]): 18%
inhibition at 1 µM (NCI-H1299 [2]): 24%
inhibition at 1 µM (NCI-H460 [3]): 17%

Structure (SMILES): CCCCOc1ccc2nc(NC(=O)OC)[nH]c2c1
inhibition at 1 µM (A549 [1]): 30%
inhibition at 1 µM (NCI-H1299 [2]): 39%
inhibition at 1 µM (NCI-H460 [3]): 31%

Structure (SMILES): COC(=O)Nc1nc2ccc(OCCCF)cc2[nH]1
inhibition at 1 µM (A549 [1]): 28%
inhibition at 1 µM (NCI-H1299 [2]): 25%
inhibition at 1 µM (NCI-H460 [3]): 20%

Structure (SMILES): CCCOc1cc2[nH]c(NC(=O)CC)nc2cc1OC
inhibition at 1 µM (A549 [1]): 10%
inhibition at 1 µM (NCI-H1299 [2]): 11%
inhibition at 1 µM (NCI-H460 [3]): 14%

Structure (SMILES): CCCOc1ccc2nc(N(C)C(=O)OC)[nH]c2c1
inhibition at 1 µM (A549 [1]): 0%
inhibition at 1 µM (NCI-H1299 [2]): 22%
inhibition at 1 µM (NCI-H460 [3]): 8%

remaining at 0.5 h [12]: 20%
half-life [4]: 0.3 h
bioavailability [5]: 50%
clearance [6]: 38.5 mL/min/kg
Cmax [7]: 2760 ng/mL
fraction unbound [14]: 0.17
Vd [8]: 0.6 L/kg
remaining at 4 h [16]: > 99%
fraction unbound [17]: 0.15
AUC [9]: 2140 ng·h/mL
remaining at 4 h [19]: 95%
remaining at 0.5 h [20]: 2.6%
remaining at 0.5 h [21]: 29%
remaining at 4 h [22]: 95%
solubility [25]: 53 µM (≈ 14.1 µg/mL)
Structure (SMILES): CCCOc1cc2[nH]c(NC(=O)CC)nc2cc1F
Activity (NCI-H460 [10]): Active
inhibition at 1 µM (A549 [1]): 64%
Activity [11]: Non-toxic
Activity (Vero): Non-toxic
Activity (HEY A8): Active
Activity (A2780): Active
TGI (HeyA8-MDR): Active
Activity [13]: Non-toxic
Activity [15]: Non-toxic
Activity (NIH3T3): Non-toxic
Activity (A549 [18]): Active
inhibition at 10 µM (hERG (KCNH2)): 29%
inhibition at 1 µM (NCI-H1299 [2]): 62%
Activity (HFL1): Non-toxic
Activity (CHO-K1): Non-toxic
inhibition at 1 µM (NCI-H460 [3]): 63%
Activity (L929): Non-toxic
Activity [23]: Non-toxic
Activity (NCI-H1299 [24]): Active
